What was measured:
[1] = MB-102 pig plasma concentration after intramuscular dosing; assay type: in vivo; conditions: pig 09801, IM, 3.2 mpk
Source text: (§1) Juvenile Yorkshire pigs weighing approximately 25 kg were anesthetized, their body temperature stabilized, and an IV port surgically placed. A region approximately half-way along the line between the hip and knee joint was selected as the injection site and prepared by cleaning the skin and removing any exposed hair by shaving the selected area at least twice. Similarly, the site where two Quantum Leap fluorescent sensors (disclosed in U.S. Pat. No. 10,548,521) were to be positioned (chest) was prepared by washing and shaving. After the skin was dry the sensors were attached with commercially available skin adhesive and background skin auto-fluorescence measurements were recorded. After about 20 minutes of background fluorescence collection the subject animal was dosed either intravenously (animal 48019) or subcutaneously (animals 52771, 53701 09802, or 1539) or intramuscularly (09801) with PBS-1× formulated MB-102 at 3.2 mg/kg. Injection of the appropriate volume took place over about a minute. […] At this point glomerular elimination of MB-102 by the kidneys led to a decrease of fluorescence signal over time. Blood samples (1.5 mL) were taken immediately prior to the introduction of MB-102 (0 minutes) and at 15 minute intervals throughout the procedure. Blood was collected in BD vacutainer K2EDTA tubes, spun to plasma and stored at −80° C. until analyzed. Subsequently, the processed plasma samples were thawed, diluted with PBS-1× and analyzed by HPLC or UPLC and the concentration of MB-102 determined using standard analytical techniques. Further details for each animal are provided in the examples that follow.
(§2) Experimental animal Yorkshire pig, 09801, was subject to Intramuscular (IM) administration of MB-102 using substantially the same procedure as Example 8, but substituting a 2 mL syringe equipped with a single 13 mm×27 g needle. […] Blood sampling and processing was as described in Example 8 and the results (Table 1) are plotted in FIG. 6.

[2] = Transdermal fluorescence signal at the chest after injection; assay type: in vivo, pig
Source text: as §1
A sterile Mesoderm needle pack was obtained. The needle array featured five (5), 4 mm×30 gauge (0.30 mm dia) luer-hub needles arranged four (4) in a circular, symmetrical pattern (30 mm diameter) about a central needle and were attached via a distribution channel and a second luer-hub to a primary source syringe (3 mL in total deliverable volume). MB-102 API was formulated as 60 mg/mL of sodium salt in 1×PBS and placed in 5 mL serum cap vials. Immediately prior to dosing, the primary syringe was filled with a slight excess of the required amount of formulated MB-102 to achieve 3.2 mg/kg and the needle cap replaced until the subject animal and fluorescence monitor were ready for the experiment to begin and the injection initiated. Subject pig 52771 was dosed with 1.2 mL of MB-102 formulated in PBS-1× (3.2 mg/kg). […] Subject animal fluorescence was obtained during the entire course of the experiment (8 hrs) and blood samples were collected every 15 minutes, processed and stored at −80° C. Comparison of IV MB-102 plasma concentration versus time and subcutaneous MB-102 (both at 3.2 mg/kg dose) plasma concentration versus time are shown in FIG. 1.
Experimental animal Yorkshire pig, 53701, was subject to subcutaneous (subQ) administration of MB-102 as described in Example 8. […] Plasma sampling was conducted as described in Example 8 and the results (Table 1) are plotted in FIG. 1.
Experimental animal Yorkshire pig, 09802, was subject to subcutaneous (subQ) administration of MB-102 using a single needle in the same protocol as Example 8 but substituting a 2 mL syringe equipped with a single 4 mm×30 g needle. […] Plasma sampling was conducted as described in Example 8 and the results (Table 1) are plotted in FIG. 1.
as §2
Experimental animal Yorkshire pig, 1539, was subject to subcutaneous (subQ) administration of MB-102 using a single needle in the same protocol as Example 10. […]

[3] = Storage of concentrated MB-102 salt solution at 4° C. (precipitation); assay type: physicochemical; conditions: sodium salt, 300 mg per mL water (w/v), 4° C. overnight
Protocol: MB-102 (0.300 g, 0.81 mmol), was placed in a vial (4.0 mL). Water was added (0.8 mL, D.I.) and the mixture sonicated for a brief period of time. To the mixture was added aqueous 6.25 N NaOH (2 equivalents, 1.62 mmol, 0.24 mL, added in portions; 0.020 mL×12 to effect solution) with stirring and brief periods of sonication. […] The final concentration was 300 mg (2R,2′R)-2,2′-((3,6-diaminopyrazine-2,5-dicarbonyl)bis(azanediyl))bis(3-hydroxypropanoic acid), MB-102 per mL water (w/v).
MB-102 (0.30 g, 0.81 mmol) was weighed into a 5 mL v-vial equipped with a Teflon-covered magnetic spin vane. Choline hydroxide in water (Aldrich, 0.43 g of 46 wt %, 1.62 mmol) was added portion-wise with stirring until a solution was obtained. The total weight of the solution was 0.73 g or 64.2 wt % MB-102 di-choline salt (MW: 578.6).

SMILES: Nc1nc(C(=O)N[C@H](CO)C(=O)O)c(N)nc1C(=O)N[C@H](CO)C(=O)O [MB-102, 3,6-diamino-2,5-bis{N-[(1R)-1-carboxy-2-hydroxyethyl]carbamoyl}pyrazine]
- concentration at 15 min ([1]; Yorkshire, plasma, intramuscular, 3.2 mg/kg, 15 min, read-out: MB-102 Pig Plasma Conc.): 10 µg/mL
- concentration at 30 min ([1]; Yorkshire, plasma, intramuscular, 3.2 mg/kg, 30 min, read-out: MB-102 Pig Plasma Conc.): 8.13 µg/mL
- concentration at 45 min ([1]; Yorkshire, plasma, intramuscular, 3.2 mg/kg, 45 min, read-out: MB-102 Pig Plasma Conc.): 6.24 µg/mL
- concentration at 60 min ([1]; Yorkshire, plasma, intramuscular, 3.2 mg/kg, 60 min, read-out: MB-102 Pig Plasma Conc.): 5.03 µg/mL
- concentration at 75 min ([1]; Yorkshire, plasma, intramuscular, 3.2 mg/kg, 75 min, read-out: MB-102 Pig Plasma Conc.): 3.93 µg/mL
- concentration at 90 min ([1]; Yorkshire, plasma, intramuscular, 3.2 mg/kg, 90 min, read-out: MB-102 Pig Plasma Conc.): 3.37 µg/mL
- concentration at 105 min ([1]; Yorkshire, plasma, intramuscular, 3.2 mg/kg, 105 min, read-out: MB-102 Pig Plasma Conc.): 2.73 µg/mL
- concentration at 120 min ([1]; Yorkshire, plasma, intramuscular, 3.2 mg/kg, 120 min, read-out: MB-102 Pig Plasma Conc.): 2.13 µg/mL
- concentration at 135 min ([1]; Yorkshire, plasma, intramuscular, 3.2 mg/kg, 135 min, read-out: MB-102 Pig Plasma Conc.): 1.8 µg/mL
- concentration at 150 min ([1]; Yorkshire, plasma, intramuscular, 3.2 mg/kg, 150 min, read-out: MB-102 Pig Plasma Conc.): 1.51 µg/mL
- concentration at 165 min ([1]; Yorkshire, plasma, intramuscular, 3.2 mg/kg, 165 min, read-out: MB-102 Pig Plasma Conc.): 1.34 µg/mL
- concentration at 180 min ([1]; Yorkshire, plasma, intramuscular, 3.2 mg/kg, 180 min, read-out: MB-102 Pig Plasma Conc.): 1.11 µg/mL
- concentration at 195 min ([1]; Yorkshire, plasma, intramuscular, 3.2 mg/kg, 195 min, read-out: MB-102 Pig Plasma Conc.): 0.946 µg/mL
- concentration at 210 min ([1]; Yorkshire, plasma, intramuscular, 3.2 mg/kg, 210 min, read-out: MB-102 Pig Plasma Conc.): 0.841 µg/mL
- concentration at 225 min ([1]; Yorkshire, plasma, intramuscular, 3.2 mg/kg, 225 min, read-out: MB-102 Pig Plasma Conc.): 0.686 µg/mL
- concentration at 240 min ([1]; Yorkshire, plasma, intramuscular, 3.2 mg/kg, 240 min, read-out: MB-102 Pig Plasma Conc.): 0.578 µg/mL
- concentration at 255 min ([1]; Yorkshire, plasma, intramuscular, 3.2 mg/kg, 255 min, read-out: MB-102 Pig Plasma Conc.): 0.52 µg/mL
- concentration at 270 min ([1]; Yorkshire, plasma, intramuscular, 3.2 mg/kg, 270 min, read-out: MB-102 Pig Plasma Conc.): 0.434 µg/mL
- concentration at 285 min ([1]; Yorkshire, plasma, intramuscular, 3.2 mg/kg, 285 min, read-out: MB-102 Pig Plasma Conc.): 0.373 µg/mL
- concentration at 300 min ([1]; Yorkshire, plasma, intramuscular, 3.2 mg/kg, 300 min, read-out: MB-102 Pig Plasma Conc.): 0.333 µg/mL
- concentration at 315 min ([1]; Yorkshire, plasma, intramuscular, 3.2 mg/kg, 315 min, read-out: MB-102 Pig Plasma Conc.): 0.298 µg/mL
- concentration at 330 min ([1]; Yorkshire, plasma, intramuscular, 3.2 mg/kg, 330 min, read-out: MB-102 Pig Plasma Conc.): 0.261 µg/mL
- concentration at 345 min ([1]; Yorkshire, plasma, intramuscular, 3.2 mg/kg, 345 min, read-out: MB-102 Pig Plasma Conc.): 0.222 µg/mL
- concentration at 360 min ([1]; Yorkshire, plasma, intramuscular, 3.2 mg/kg, 360 min, read-out: MB-102 Pig Plasma Conc.): 0.203 µg/mL
- SUM (plasma conc. over time) ([1]; 15-360 min): 794,162 ng/mL*min
- time until fluorescence signal first observed ([2]; pig 1539, single needle subcutaneous): after a few minutes
- time until fluorescence signal first observed ([2]; pig 09801, single needle intramuscular): after a few minutes
- time until fluorescence signal first observed ([2]; pig 09802, single needle subcutaneous): after a few minutes
- time until transdermal fluorescent signal detectable ([2]; pig 52771, multi-needle subcutaneous, 3.2 mg/kg): Within a few minutes
- time until fluorescence signal first observed ([2]; pig 53701, multi-needle subcutaneous): after a few minutes
- time until fluorescent skin signal at the chest observed ([2]; pigs, 3.2 mg/kg IV, subcutaneous or intramuscular, typical): within several minutes post injection
- precipitate formation on storage [3]: no precipitate formation

From patent US20220143222A1, “SUBCUTANEOUS AND INTRAMUSCULAR ADMINISTRATION OF PYRAZINE COMPOUNDS” (MediBeacon Inc., priority 2020, published 2022)
